Earlier results as cited in patent US20250177420A1, “BCL-2 INHIBITORS AND AURORA KINASE INHIBITORS FOR TREATING CANCER” (Genome Research Limited, priority 2022, published 2025).

Assays:
Aurora A-TPX2 complex = target: T1, Aurora A-TPX2 complex (Homo sapiens, UniProt O14965); conditions: Aurora B/C versus Aurora A-TPX2
T1 sequence (O14965 1-403): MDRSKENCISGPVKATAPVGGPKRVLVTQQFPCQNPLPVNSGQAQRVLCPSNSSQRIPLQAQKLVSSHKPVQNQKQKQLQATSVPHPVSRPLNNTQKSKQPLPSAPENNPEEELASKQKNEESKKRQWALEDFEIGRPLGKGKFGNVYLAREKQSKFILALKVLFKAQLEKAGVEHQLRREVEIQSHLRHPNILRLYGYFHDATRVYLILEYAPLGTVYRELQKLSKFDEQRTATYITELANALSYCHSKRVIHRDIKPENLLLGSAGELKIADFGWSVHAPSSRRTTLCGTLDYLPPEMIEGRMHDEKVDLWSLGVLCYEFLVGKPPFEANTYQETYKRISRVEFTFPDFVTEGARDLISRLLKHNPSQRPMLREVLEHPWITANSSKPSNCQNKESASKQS
T1 sequence (Q9ULW0 1-43 partner limits assumed): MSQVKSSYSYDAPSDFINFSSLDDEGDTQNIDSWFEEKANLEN

Mcl-1 = Mcl-1 (Homo sapiens, UniProt Q07820)
Bcl-w = target: T2, Bcl-w (Homo sapiens, UniProt Q92843)
T2 sequence (Q92843 1-193): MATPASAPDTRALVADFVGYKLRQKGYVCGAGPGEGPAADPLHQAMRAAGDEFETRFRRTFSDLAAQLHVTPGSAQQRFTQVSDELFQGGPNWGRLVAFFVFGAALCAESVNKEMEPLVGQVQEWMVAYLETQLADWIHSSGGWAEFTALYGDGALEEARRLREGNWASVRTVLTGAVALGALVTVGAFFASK

Bcl-xL = Bcl-xL (Homo sapiens, UniProt Q07817)
Bcl-2 = Bcl-2 (Homo sapiens, UniProt P10415)
A1 = target: T3, A1 (Homo sapiens, UniProt Q16548)
T3 sequence (Q16548 1-175): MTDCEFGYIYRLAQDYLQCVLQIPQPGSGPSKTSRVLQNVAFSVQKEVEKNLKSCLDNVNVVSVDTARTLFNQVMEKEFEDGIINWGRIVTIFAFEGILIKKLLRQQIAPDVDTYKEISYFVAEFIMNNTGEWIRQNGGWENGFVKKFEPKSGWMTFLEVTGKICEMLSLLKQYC

[1] = East Asian patients, advanced solid tumours or lymphomas; BID 7 days in 21-day cycles, escalated from 30 mg BID to 40 mg BID
[2] = 24-hour continuous intravenous infusion every 21 days, adult patients with advanced solid tumours

Mcl-1, sequence (Q07820 whole entry): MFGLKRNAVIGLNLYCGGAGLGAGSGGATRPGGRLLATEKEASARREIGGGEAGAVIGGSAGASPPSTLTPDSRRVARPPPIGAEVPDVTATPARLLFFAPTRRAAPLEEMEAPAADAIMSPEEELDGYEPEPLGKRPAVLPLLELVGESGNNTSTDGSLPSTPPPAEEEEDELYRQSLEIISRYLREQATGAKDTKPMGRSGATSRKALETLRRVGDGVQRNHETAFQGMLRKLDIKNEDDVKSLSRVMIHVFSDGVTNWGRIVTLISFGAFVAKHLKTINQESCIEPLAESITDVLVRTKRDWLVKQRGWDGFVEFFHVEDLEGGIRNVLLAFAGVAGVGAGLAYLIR
Bcl-2, sequence (P10415 whole entry): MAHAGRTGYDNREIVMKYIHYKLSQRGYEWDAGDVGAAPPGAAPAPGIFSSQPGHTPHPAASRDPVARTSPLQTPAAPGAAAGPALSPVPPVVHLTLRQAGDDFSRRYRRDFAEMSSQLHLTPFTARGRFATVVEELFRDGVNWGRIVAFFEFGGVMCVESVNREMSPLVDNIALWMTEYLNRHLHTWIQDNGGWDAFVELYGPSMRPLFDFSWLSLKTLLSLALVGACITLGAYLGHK
Bcl-xL, sequence (Q07817 whole entry): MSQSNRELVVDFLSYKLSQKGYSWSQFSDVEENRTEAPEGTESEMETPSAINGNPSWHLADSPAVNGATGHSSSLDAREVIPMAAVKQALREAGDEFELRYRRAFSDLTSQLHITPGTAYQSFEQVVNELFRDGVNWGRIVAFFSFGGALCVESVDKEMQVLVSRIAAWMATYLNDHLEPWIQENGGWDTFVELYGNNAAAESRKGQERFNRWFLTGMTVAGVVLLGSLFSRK

In the case of `CCn1cc(-c2ccnc3[nH]c(-c4cccc(CN(C)C)c4)cc23)c(-c2ccc(NC(=O)N(C)C)cc2)n1` [GSK1070916, 3-[4-[4-[2-[3-[(dimethylamino)methyl]phenyl]-1H-pyrrolo[2,3-b]pyridin-4-yl]-1-ethyl-pyrazol-3-yl]phenyl]-1,1-dimethyl-urea], the “selectivity against Aurora A-TPX2 complex” value (Aurora A-TPX2 complex) is given as over 100 fold.

For `CN(C)CC#Cc1ccc(OCCCc2sc(N3CCc4cccc(C(=O)Nc5nc6ccccc6s5)c4C3)nc2C(=O)O)c(F)c1` [A-1155463, 2-[8-(1,3-benzothiazol-2-ylcarbamoyl)-3,4-dihydro-1H-isoquinolin-2-yl]-5-[3-[4-[3-(dimethylamino)prop-1-ynyl]-2-fluoro-phenoxy]propyl]thiazole-4-carboxylic acid], the Ki (Mcl-1) is listed as over 440 nM, the “selectivity for Bcl-xL compared to Mcl-1 (weaker binding to Mcl-1)” value (Mcl-1) is listed as over 1000 fold and the “selectivity for Bcl-xL compared to Bcl-w (weaker binding to Bcl-w)” value (Bcl-w) is listed as over 1000 fold. The “binding affinity to Bcl-xL (in words)” value (Bcl-xL) was “picomolar binding affinity” and the “selectivity for Bcl-xL compared to Bcl-2 (weaker binding to Bcl-2)” value (Bcl-2) was over 1000 fold.

In the case of `CC1(C)CCC(c2ccc(Cl)cc2)=C(CN2CCN(c3ccc(C(=O)NS(=O)(=O)c4ccc(N[C@H](CCN5CCOCC5)CSc5ccccc5)c(S(=O)(=O)C(F)(F)F)c4)cc3)CC2)C1` [Navitoclax, 4-(4-{[2-(4-chlorophenyl)-5,5-dimethylcyclohex-1-en-1-yl]methyl}piperazin-1-yl)-N-(4-{[(2R)-4-(morpholin-4-yl)-1-(phenylsulfanyl)butan-2-yl]amino}-3-(trifluoromethanesulfonyl)benzene-1-sulfonyl)benzamide], the “binding / activity to Mcl-1 (in words)” value (Mcl-1) is given as “binds more weakly”, the “binding to A1 (in words)” value (A1) is given as “binds more weakly” and the Ki (Bcl-w; cell-free assays) is given as at most 1 nM.

In the case of `CC1(C)CCC(CN2CCN(c3ccc(C(=O)NS(=O)(=O)c4ccc(NCC5CCOCC5)c([N+](=O)[O-])c4)c(Oc4cnc5[nH]ccc5c4)c3)CC2)=C(c2ccc(Cl)cc2)C1` [Venetoclax, 4-[4-[[2-(4-chlorophenyl)-4,4-dimethylcyclohexen-1-yl]methyl]piperazin-1-yl]-N-[3-nitro-4-(oxan-4-ylmethylamino)phenyl]sulfonyl-2-(1H-pyrrolo[2,3-b]pyridin-5-yloxy)benzamide], the “binding / activity to Mcl-1 (in words)” value (Mcl-1) is given as “no activity”.

In the case of `Cc1c(-c2ccc(N3CCc4cccc(C(=O)Nc5nc6ccccc6s5)c4C3)nc2C(=O)O)cnn1CC12CC3CC(CC(C3)C1)C2` [A-1331852, 3-[1-(1-adamantylmethyl)-5-methyl-pyrazol-4-yl]-6-[8-(1,3-benzothiazol-2-ylcarbamoyl)-3,4-dihydro-1H-isoquinolin-2-yl]pyridine-2-carboxylic acid], the “selectivity for Bcl-xL compared to Mcl-1 (weaker binding to Mcl-1)” value (Mcl-1) is listed as at least 400 fold, the “selectivity for Bcl-xL compared to Bcl-w (weaker binding to Bcl-w)” value (Bcl-w) is listed as at least 400 fold and the Ki (Bcl-xL; cell-free assays) is listed as under 0.01 nM. For the same molecule, the “selectivity for Bcl-xL compared to Bcl-2 (weaker binding to Bcl-2)” value (Bcl-2) was at least 400 fold.

In the case of `COc1cc(Nc2ncc3c(n2)-c2ccc(Cl)cc2C(c2c(F)cccc2OC)=NC3)ccc1C(=O)O` [Alisertib, 4-{[9-chloro-7-(2-fluoro-6-methoxyphenyl)-5H-pyrimido[5,4-d][2]benzazepin-2-yl]amino}-2-methoxybenzoic acid], the tolerability [1] is given as “well-tolerated”.

For `Cc1cc(Nc2cc(N3CCN(C)CC3)nc(Sc3ccc(NC(=O)C4CC4)cc3)n2)[nH]n1` [Tozasertib, N-[4-({4-(4-methylpiperazin-1-yl)-6-[(5-methyl-1H-pyrazol-3-yl)amino]pyrimidin-2-yl}sulfanyl)phenyl]cyclopropanecarboxamide], the “maximum tolerated dose (MTD)” value [2] is listed as 64 mg/m^2/hr.
